Consider five compounds from paper PMC5634595, “Properties of halogenated and sulfonated porphyrins relevant for the selection of photosensitizers in anticancer and antimicrobial therapies” (PLoS ONE, 2017).

A short description of series [1]: Singlet oxygen quantum yield by phosphorescence at 1270 nm. Type of series: physicochemical. Particulars: EtOH, phenalenone as reference. On the procedure:
(§1) Fluorescence emission spectra were recorded from 550 nm to 750 nm with excitation at Soret band (λ≈420 nm). The excitation and emission slits were both set to 8 nm and scanning speed to 50 nm/min. Fluorescence spectra were recorded with a Perkin Elmer Fluorescence Spectrometer LS 55. Determination of fluorescence quantum yields: ΦF of studied photosensitizers was determined using the comparative method according to the equation: ΦF=ΦFStd⋅FAStdn^2/FStdAnStd2, (1) where F and FStd are the areas under the fluorescence emission curves of the sample and the standard, A and AStd are the absorbance of the sample and the standard and n are the refractive indices of the solvent used for the sample and the standard, respectively. Commercially available tetraphenylporphyrin TPP (Std) (ΦF = 0.10 in toluene) was employed as the standard. The absorbance of the solutions at the excitation wavelength was in the range of 0.02. Singlet oxygen quantum yields were determined based on the relative phosphorescence emissions of singlet oxygen generated by a reference and by each one of the porphyrins, using a method described elsewhere. Briefly, a modified Applied Photophysics LKS.60 flash photolysis spectrometer with a Hamamatsu NIR photomultiplier for detection and HP Infinium (500 MHz, 1GSas^-1) or Tektronix DPO 7254 (2.5 GHz, 40GSas^-1) oscilloscopes were used. The adaptation of this spectrometer allowed for the detection of singlet oxygen phosphorescence at room temperature. This emission was detected using a Hamamatsu R5509–42 photomultiplier, cooled to 193 K in a liquid nitrogen chamber. […] The modification of the spectrometer for time-resolved singlet oxygen phosphorescence measurements involved the interposition of a Melles Griot cold mirror (03MCS005), which reflects more than 99% of the incident light in the 400–700 nm range, and of a Scotch RG665 filter. A 600 line diffraction grating was mounted in place of a standard one. […] Solutions of photosensitizers were prepared with matched absorbances close to 0.2 at 355 nm. […]

A short description of series [2]: Fluorescence emission and fluorescence quantum yield (comparative method). It counts as physicochemical. Particulars: EtOH, TPP as standard. As to the method: as §1
The next series deals with E. coli (K12). The series can be described thus: Photodynamic inactivation of microorganisms, CFU. Type of series: cell-based. Particulars: PDI 10 J/cm^2, 420±20 nm, concentration not given. As to the method: (§2) The microorganisms used in PDI were: S. aureus (8325–4), E. faecalis (ATCC29212), E. coli (K12), P. aeruginosa (ATCC19660), S. marcescens (ATCC14756) and C. albicans (DAY286). The planctonic bacteria cells were cultured in brain heart infusion broth (Sigma-Aldrich) and LB Broth/Lennox (BioShop Lab Science Products) in an orbital incubator (37°C, 130 rpm), until the optical density reached 0.5, which corresponds to approximately 10^7 CFU per mL. The fungal yeasts were cultured in YPD Broth (BioShop) with overnight aeration at 30°C to reach ca. 10^6 CFU/mL. For PDI experiments cell suspensions of bacteria or fungal yeasts were incubated with various concentrations of the porphyrins at pH 7.4 (PBS) for 1 h in the dark at room temperature. Aliquots (1 mL) were transferred to a 12-well plate and illuminated with a blue light. We used blue-LED array (420±20 nm) to deliver a light dose of 10 J/cm^2 (measured with a power meter). Cells treated with photosensitizers in the dark were incubated covered with aluminum foil for the same time as the PDI groups (1 h). After illumination (or dark incubation) samples were shaken, diluted in PBS, mixed and plated (LB agar). Aliquots were taken from each well to determine the CFU value. Plates were streaked in triplicate and incubated for 12–36 h at 30 °C (for fungal yeasts) or 37 °C (for bacteria) in the dark to allow colony formation.

The test system of series [3] is P. aeruginosa (ATCC19660). In words: Photodynamic inactivation of microorganisms, CFU. It counts as cell-based. Particulars: PDI 10 J/cm^2, 420±20 nm, concentration not given. As to the method: as §2
In a further series the target is HSA (Homo sapiens, UniProt P02768). The series can be described thus: Binding to HSA by fluorescence quenching (Stern-Volmer, Scatchard). Particulars: for KSV (Stern-Volmer constant), HSA: HSA fluorescence quenching, PBS, room temperature; for n (number of binding sites), HSA: Scatchard analysis. On the procedure:
The binding of the PS to HSA was studied by spectrofluorometry at room temperature. An aqueous (phosphate buffer saline, PBS) solution of HSA was titrated with varying concentrations of the respective porphyrin solutions. HSA was excited at 295 nm and fluorescence was recorded between 300 nm and 400 nm. The systematic lowering of HSA fluorescence with increasing photosensitizer concentrations was noted and used in the determination of the binding constants and the number of binding sites on HSA according to Scatchard equation. The changes in HSA fluorescence intensity were related to porphyrin concentrations by the Stern-Volmer relationship. The binding constant (Kb) of PS to lipoproteins was also determined using the spectroscopic titration method. The sets of steady-state emission spectra of PBS solutions with different concentrations of HDL and LDL, to which the porphyrin (5 μM) was added were measured. The fluorescence intensity of the dye increased upon its partitioning into the lipoproteins. To obtain Kb, F versus [L] data were plotted and fitted to by a nonlinear regression routine.

Series [4] in a line: UV/Vis absorption spectra, molar absorption coefficients. Particulars: EtOH; for Absorption λmax, B(0,0): Soret band. It counts as physicochemical. On the procedure:
All commercial chemicals and reagents were of analytical grade and were purchased from Sigma-Aldrich. UV/Vis absorption spectra were recorded in a Hewlett Packard HP8453 spectrophotometer. Solutions containing samples of photosensitizers were dissolved in the selected solvent in quartz cuvettes. Using measured absorbance for various concentrations of porphyrin in ethanol, the molar absorption coefficients were determined from Beer’s law.

A short description of series [5]: n-Octanol/PBS partition coefficient, shake-flask. Type of series: physicochemical. Particulars: modified shake-flask. On the procedure: The n-octanol/PBS partition coefficients were measured following shake-flask method with minor modifications. The photosensitizers were dissolved in n-octanol previously saturated with a solution of PBS. The same volume of PBS saturated with n-octanol was added and mixed on a vortex device and then the phases were separated by centrifugation. Next, the PBS/n-octanol phase was taken and diluted to obtain 0.5% of PBS/n-octanol content in the final solution. This solution was left into the ultrasonic bath. The fluorescence of each solution was measured using Fluorescence Spectrometer LS 55 (Perkin Elmer) and compared with calibration curve to obtain the concentration of the photosensitizer. Partition coefficients were calculated from the ratio coct/cPBS, where coct and cPBS are the concentrations of the porphyrin derivatives in the n-octanol and in the PBS.

Series [6] is described as follows: Photodegradation (photostability) under xenon lamp irradiation. It counts as physicochemical. Particulars: same irradiation conditions as in the biological studies. As to the method: The photostability of porphyrins was investigated following the measurement of their optical absorption in aqueous solutions. Continuous irradiation of an aerated solution were carried out using the xenon lamp (XBO-150) through the 10 cm water filter and bandpass filter transmitting within >400 nm range, delivering 75 mW/cm^2. The reaction progress was monitored by UV/Vis spectroscopy using a Hewlett Packard HP8453 spectrophotometer.

For series [7] the following is noted: reference compound, in ethanol; cited from earlier work.
On the set-up of series [8]: method as in earlier work. Particulars: non-halogenated standard, in toluene; cited from earlier work.

Like-named read-outs stand apart in the source and are kept apart here.

HSA, sequence (P02768 25-609): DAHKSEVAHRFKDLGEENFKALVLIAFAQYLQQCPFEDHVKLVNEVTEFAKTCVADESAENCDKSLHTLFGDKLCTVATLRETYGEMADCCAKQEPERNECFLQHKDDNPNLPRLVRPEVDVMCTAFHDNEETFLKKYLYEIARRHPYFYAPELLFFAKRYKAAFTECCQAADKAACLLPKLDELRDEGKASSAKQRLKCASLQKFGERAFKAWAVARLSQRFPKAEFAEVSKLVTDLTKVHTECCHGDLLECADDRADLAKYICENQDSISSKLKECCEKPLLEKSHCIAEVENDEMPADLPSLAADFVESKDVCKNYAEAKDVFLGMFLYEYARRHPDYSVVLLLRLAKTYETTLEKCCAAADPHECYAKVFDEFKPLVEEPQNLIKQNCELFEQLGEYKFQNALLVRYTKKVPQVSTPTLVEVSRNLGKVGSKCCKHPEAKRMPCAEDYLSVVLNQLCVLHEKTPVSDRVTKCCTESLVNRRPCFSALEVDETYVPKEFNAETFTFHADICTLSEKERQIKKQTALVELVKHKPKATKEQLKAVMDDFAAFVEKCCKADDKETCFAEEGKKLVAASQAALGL

Take `O=S(=O)(O)c1ccc(Cl)c(-c2c3nc(c(-c4c(Cl)ccc(S(=O)(=O)O)c4Cl)c4ccc([nH]4)c(-c4c(Cl)ccc(S(=O)(=O)O)c4Cl)c4nc(c(-c5c(Cl)ccc(S(=O)(=O)O)c5Cl)c5ccc2[nH]5)C=C4)C=C3)c1Cl` [Cl2POH, 5,10,15,20-tetrakis(2,6-dichloro-3-sulfophenyl)porphyrin]: the “Singlet oxygen quantum yield ΦΔ” value in series [1] is given as 0.98. Further, the “Fluorescence quantum yield ΦF” value in series [2] amounted to 0.015. Also, the Decrease in survival in the series with E. coli (K12) was 1.5–2 logs. For the same compound, the “Decrease in survival / bacteria CFU killing” value in series [3] is 1.5–2 logs. Further, at HSA, the “KSV (Stern-Volmer constant), HSA” value is on record as 4.66 10^5M^-1 and the “n (number of binding sites), HSA” value is listed as 1. In addition, in [4], the “Absorption λmax, Qx (0,1)” value was found to be 592 nm; the “Absorption λmax, Qx(0,0)” value was determined as 646 nm; the “Absorption λmax, Qy (0,0)” value was 546 nm; the “Absorption λmax, Qy (0,1)” value is given as 514 nm. Further, the “Absorption λmax, B(0,0)” value in series [4] came to 420 nm. Moreover, the logP (in general, a log measure of how a compound divides between an organic and an aqueous phase) in series [5] is -1.8.
On to `C=CC1=C(C)c2cc3[nH]c(cc4nc(cc5[nH]c(cc1n2)c(C)c5CCC(=O)O)C(CCC(=O)O)=C4C)c(C)c3C=C` [PpIX], for which the “Photostability (Soret band absorbance during irradiation)” value in series [6] is listed as “more prone to photooxidation”.
For the compound `O=C1C=Cc2cccc3cccc1c23` [phenalenone], in series [7], the “Singlet oxygen quantum yield ΦΔ” value was 0.95 ± 0.02.
With `C1=Cc2nc1c(-c1ccccc1)c1nc(c(-c3ccccc3)c3ccc([nH]3)c(-c3ccccc3)c3ccc([nH]3)c2-c2ccccc2)C=C1` [TPP, tetraphenylporphyrin], the “Fluorescence quantum yield ΦF” value in [8] is listed as 0.10.
`CCNS(=O)(=O)c1ccc(Cl)c(-c2c3nc(c(-c4c(Cl)ccc(S(=O)(=O)NCC)c4Cl)c4ccc([nH]4)c(-c4c(Cl)ccc(S(=O)(=O)NCC)c4Cl)c4nc(c(-c5c(Cl)ccc(S(=O)(=O)NCC)c5Cl)c5ccc2[nH]5)C=C4)C=C3)c1Cl` [Cl2PEt, 5,10,15,20-tetrakis(2,6-dichloro-3-N-ethylsulfamoylphenyl)porphyrin]: the “Singlet oxygen quantum yield ΦΔ” value in [1] turned out to be 0.85. Also, the “Fluorescence quantum yield ΦF” value in series [2] was found to be 0.017. For the same compound, in series [3], the “Decrease in survival / bacteria CFU killing” value is “up to 3 logs”. In addition, on HSA, the “KSV (Stern-Volmer constant), HSA” value is on record as 6.62 10^5M^-1 and the “n (number of binding sites), HSA” value is recorded as 1. Besides, in series [4], the “Absorption λmax, Qx (0,1)” value is 592 nm; the “Absorption λmax, Qx(0,0)” value worked out at 646 nm; the “Absorption λmax, Qy (0,0)” value came to 546 nm; the “Absorption λmax, Qy (0,1)” value was found to be 514 nm. For the same compound, the “Absorption λmax, B(0,0)” value in [4] was found to be 418 nm. Also, the logP in [5] is 1.84.
